Among the data in patent publication US20230399341A1, “7-PHENYL SUBSTITUTED 2-AMINOQUINAZOLINE INHIBITORS OF HPK1” (MERCK SHARP & DOHME LLC, priority 2020, published 2023) are IC50 values, retold here.

The target in this test is T1, Human HPK1, catalytic domain (Homo sapiens, UniProt Q92918).
T1 sequence (Q92918 1-346): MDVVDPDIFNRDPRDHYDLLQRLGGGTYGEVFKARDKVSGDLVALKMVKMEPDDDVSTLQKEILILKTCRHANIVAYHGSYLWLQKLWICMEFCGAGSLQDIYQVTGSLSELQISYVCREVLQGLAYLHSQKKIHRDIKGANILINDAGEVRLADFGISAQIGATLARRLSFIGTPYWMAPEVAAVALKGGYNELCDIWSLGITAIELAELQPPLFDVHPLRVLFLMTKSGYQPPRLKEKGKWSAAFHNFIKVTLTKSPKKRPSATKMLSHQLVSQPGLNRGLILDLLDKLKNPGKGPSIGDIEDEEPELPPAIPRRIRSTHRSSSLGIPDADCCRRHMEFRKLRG
The experiment in a line: HPK1-SLP76 TR-FRET Assay. Format: biochemical. As to conditions: 75 pM HPK1, ATP 10 uM, SLP76 10 nM, 30 min pre-incubation, 60 min reaction. A general note: TR-FRET usually uses a lanthanide donor and a delayed reading to cut background.
For orientation: IC50 means the midpoint of a concentration-inhibition curve. Higher therefore signals lower potency. Regarding `COc1cc(C)ccc1Nc1ncc2c(N)c(F)c(-c3cnc4c(c3C)NCCO4)cc2n1` [Compound 2-177, 6-fluoro-N~2~-(2-methoxy-4-methylphenyl)-7-(8-methyl-2,3-dihydro-1H-pyrido[2,3-b][1,4]oxazin-7-yl)quinazoline-2,5-diamine], the IC50 stood at 4.08 nM. `Cc1c(-c2cc3nc(Nc4ccc(CC(C)(C)O)cc4)ncc3c(N)c2F)cnc2c1NCCO2` [Compound 2-178, 1-(4-{[5-amino-6-fluoro-7-(8-methyl-2,3-dihydro-1H-pyrido[2,3-b][1,4]oxazin-7-yl)quinazolin-2-yl]amino}phenyl)-2-methylpropan-2-ol] gave an IC50 of 0.0933 nM. As to `COc1nc(C2(C#N)CC2)ccc1Nc1ncc2c(N)c(F)c(-c3cnc4c(c3C)NCCO4)c(Cl)c2n1` [Compound 2-181, (+ or −)-1-(5-{[5-amino-8-chloro-6-fluoro-7-(8-methyl-2,3-dihydro-1H-pyrido[2,3-b][1,4]oxazin-7-yl)quinazolin-2-ylamino}-6-methoxypyridin-2-yl)cyclopropane-1-carbonitrile], the concentration for half-maximal inhibition (IC50) was 100 nM. In turn, `COc1nc(C2(C#N)CC2)ccc1Nc1ncc2c(N)c(F)c(-c3cnc4c(c3C)NCCO4)c(Cl)c2n1` [Compound 2-182, (+ or −)-1-(5-{[5-amino-8-chloro-6-fluoro-7-(8-methyl-2,3-dihydro-1H-pyrido[2,3-b][1,4]oxazin-7-yl)quinazolin-2-yl]amino}-6-methoxypyridin-2-yl)cyclopropane-1-carbonitrile] registered an IC50 of 32.7 nM. Against the preceding compound, the IC50 is about 3.1-fold lower. Compound `Cc1c(-c2cc3nc(Nc4cnc5c(c4)CN(C)CC5)ncc3c(N)c2F)cnc2c1NCCO2` [Compound 2-183, 6-fluoro-7-(8-methyl-2,3-dihydro-1H-pyrido[2,3-b][1,4]oxazin-7-yl)-N~2~- (6-methyl-5,6,7,8-tetrahydro-1,6-naphthyridin-3-yl)quinazoline-2,5-diamine] registered an IC50 of 0.0379 nM.

Consider `Cc1c(-c2c(F)c(N)c3cnc(Nc4cc5c(cc4F)CCN(C)C5)nc3c2Cl)cnc2c1NCCO2` [Compound 2-184, (+ and −)-8-chloro-6-fluoro-N~2~-(6-fluoro-2-methyl-1,2,3,4-tetrahydroisoquinolin-7-yl)-7-(8-methyl-2,3-dihydro-1H-pyrido[2,3-b][1,4]oxazin-7-yl)quinazoline-2,5-diamine], for which the IC50 worked out at 3.67 nM. Take `Cc1c(-c2c(F)c(N)c3cnc(Nc4cc5c(cc4F)CCN(C)C5)nc3c2Cl)cnc2c1NCCO2` [Compound 2-185, (+ and −)-8-chloro-6-fluoro-N~2~-(6-fluoro-2-methyl-1,2,3,4-tetrahydroisoquinolin-7-yl)-7-(8-methyl-2,3-dihydro-1H-pyrido[2,3-b][1,4]oxazin-7-yl)quinazoline-2,5-diamine]: it took 0.0303 nM to reach half-maximal inhibition (IC50). This IC50 lies about 120-fold lower than the previous one. Compound `CNC(=O)C(F)(F)c1ccc(Nc2ncc3c(N)c(F)c(-c4cnc5c(c4C)NCCO5)cc3n2)cc1` [Compound 2-186, 2-(4-{[5-amino-6-fluoro-7-(8-methyl-2,3-dihydro-1H-pyrido[2,3-b][1,4]oxazin-7-yl)quinazolin-2-yl]amino}phenyl)-2,2-difluoro-N-methylacetamide] had an IC50 of 0.136 nM. `CNC(=O)C(C)(C)c1ccc(Nc2ncc3c(N)c(F)c(-c4cnc5c(c4C)NCCO5)cc3n2)cc1` [Compound 2-187, 2-(4-{[5-amino-6-fluoro-7-(8-methyl-2,3-dihydro-1H-pyrido[2,3-b][1,4]oxazin-7-yl)quinazolin-2-yl]amino}phenyl)-N,2-dimethylpropanamide]: the IC50 was 0.0812 nM. Compound `CNC(=O)C1CCc2cc(Nc3ncc4c(N)c(F)c(-c5cnc6c(c5C)NCCO6)cc4n3)ccc21` (stereo not drawn) [Compound 2-188, 5-{[5-amino-6-fluoro-7-(8-methyl-2,3-dihydro-1H-pyrido[2,3-b][1,4]oxazin-7-yl)quinazolin-2-yl]amino}-N-methyl-2,3-dihydro-1H-indene-1-carboxamide] gave an IC50 of 0.0806 nM. The IC50 values of the last two compounds are within 1.5-fold of each other. For the compound `COc1cc2c(cc1Nc1ncc3ccc(N4CCCC4=O)cc3n1)CN(C)CC2` [Compound 3-1, 1-{2-[(6-methoxy-2-methyl-1,2,3,4-tetrahydroisoquinolin-7-yl)amino]quinazolin-7-yl}-pyrrolidin-2-one], the IC50 was 241 nM. Against the preceding compound, the IC50 is about 3000-fold higher. With `COc1cc2c(cc1Nc1ncc3ccc(N4C(=O)OC[C@@H]4C)cc3n1)CN(C)CC2` [Compound 3-2, (S)-3-{2-[(6-methoxy-2-methyl-1,2,3,4-tetrahydroisoquinolin-7-yl)amino]quinazolin-7-yl}-4-methyl-1,3-oxazolidin-2-one], it took 1.79 nM to reach half-maximal inhibition (IC50). On to `COc1cc2c(cc1Nc1ncc3ccc(N4CC5(CCNCC5)OC4=O)cc3n1)CN(C)CC2` [Compound 3-5, 3-{2-[(6-methoxy-2-methyl-1,2,3,4-tetrahydroisoquinolin-7-yl)amino]quinazolin-7-yl}-1-oxa-3,8-diazaspiro[4.5]decan-2-one], for which the midpoint of inhibition, the IC50, lay at 205 nM. Take `COc1cc2c(cc1Nc1ncc3ccc(N4C(=O)OCC4(C)C)cc3n1)CN(C)CC2` [Compound 3-6, 3-{2-[(6-methoxy-2-methyl-1,2,3,4-tetrahydroisoquinolin-7-yl)amino]quinazolin-7-yl}-4,4-dimethyl-1,3-oxazolidin-2-one]: 45.2 nM corresponded to half-maximal inhibition (IC50). Take `COc1cc2c(cc1Nc1ncc3ccc(N4C(=O)OC[C@H]4C(C)C)cc3n1)CN(C)CC2` [Compound 3-10, (4R)-3-{2-[(6-methoxy-2-meth-yl-1,2,3,4-tetrahydroisoquinolin-7-yl)amino]quinazolin-7-yl}-4-(propan-2-yl)-1,3-oxazolidin-2-one]: half-maximal inhibition (IC50) required 107 nM. `COc1cc2c(cc1Nc1ncc3c(N)cc(N4C(=O)OC[C@@H]4C)cc3n1)CN(C)CC2` [Compound 3-17, (S)-3-{5-amino-2-[(6-methoxy-2-methyl-1,2,3,4-tetrahydroiso-quinolin-7-yl)amino]quinazolin-7-yl}-4-methyl-1,3-oxazolidin-2-one] displayed an IC50 of 0.0757 nM. `COc1cc2c(cc1Nc1ncc3ccc(NCC4=NS(=O)(=O)c5cc(C)ccc5N4)cc3n1)CN(C)CC2` [Compound 3-18, 3-[({2-[(6-methoxy-2-methyl-1,2,3,4-tetrahydroisoquinolin-7-yl)amino]quinazolin-7-yl}-amino)methyl]-7-methyl-1lambda~6~,2,4-benzothia-diazine-1,1(4H)-dione] showed an IC50 of 204 nM. `COc1cc2c(cc1Nc1ncc3ccc(Nc4ccc5c(c4)C(=O)NCC5)cc3n1)CN(C)CC2` [Compound 3-21, 7-({2-[(6-methoxy-2-methyl-1,2,3,4-tetrahydroisoquinolin-7-yl)amino]quinazolin-7-yl}-amino)-3,4-dihydroisoquinolin-1(2H)-one] came in with a concentration for half-maximal inhibition (IC50) of 30.4 nM. This IC50 lies about 6.7-fold lower than the previous one. For the compound `COc1cc2c(cc1Nc1ncc3ccc(N[C@H]4CCN(C(=O)C5CC5)C4)cc3n1)CN(C)CC2` [Compound 3-22, cyclopropyl[(3S)-3-({2-[(6-meth-oxy-2-methyl-1,2,3,4-tetrahydro-isoquinolin-7-yl)amino]quinaz-olin-7-yl}amino)pyrrolidin-1-yl]-methanone], inhibition was half-maximal at 535 nM (IC50). This IC50 is about 18-fold higher than that of the compound before. Consider `COc1cc2c(cc1Nc1ncc3ccc(Nc4ccc5c(c4)C(=O)N(C)C5)cc3n1)CN(C)CC2` [Compound 3-23, 6-({2-[(6-methoxy-2-methyl-1,2,3,4-tetrahydroisoquinolin-7-yl)amino]quinazolin-7-yl}-amino)-2-methyl-2,3-dihydro-1H-isoindol-1-one], for which it took 46.3 nM to reach half-maximal inhibition (IC50). This IC50 lies about 12-fold lower than the previous one. In turn, `COc1cc2c(cc1Nc1ncc3ccc(Nc4cc(S(C)(=O)=O)ccc4C)cc3n1)CN(C)CC2` [Compound 3-24, N~2~-(6-methoxy-2-methyl-1,2,3,4-tetrahydroisoquinolin-7-yl)-N~7~-[2-methyl-5-(meth-ylsulfonyl)phenyl]quinazoline-2,7-diamine] displayed an IC50 of 2.6 nM. Then `COc1cc2c(cc1Nc1ncc3ccc(NCc4ccc5c(c4)S(=O)(=O)N=C(C)N5)cc3n1)CN(C)CC2` [Compound 3-25, 7-[({2-[(6-methoxy-2-methyl-1,2,3,4-tetrahydroisoquinolin-7-yl)amino]quinazolin-7-yl}-amino)methyl]-3-methyl-1lambda~6~,2,4-benzothia-diazine-1,1(4H)-dione], with 46.8 nM; and `COc1cc2c(cc1Nc1ncc3ccc(Nc4cccc(C#N)n4)cc3n1)CN(C)CC2` [Compound 3-27, 6-({2-[(6-methoxy-2-methyl-1,2,3,4-tetrahydroisoquinolin-7-yl)amino]quinazolin-7-yl}-amino)-pyridine-2-carbonitrile], with 22.5 nM. In turn, `COc1cc2c(cc1Nc1ncc3ccc(NCc4ccc5c(c4)C(=O)NC5)cc3n1)CN(C)CC2` [Compound 3-28, 6-[({2-[(6-methoxy-2-methyl-1,2,3,4-tetrahydroisoquinolin-7-yl)amino]quinazolin-7-yl}-amino)methyl]-2,3-dihydro-1H-isoindol-1-one] registered an IC50 of 51.8 nM. Against the preceding compound, the IC50 is about 2.3-fold higher.

In turn, `COc1cc2c(cc1Nc1ncc3ccc(Nc4cccc(CO)n4)cc3n1)CN(C)CC2` [Compound 3-29, [6-({2-[(6-methoxy-2-methyl-1,2,3,4-tetrahydroisoquinolin-7-yl)amino]quinazolin-7-yl}-amino)pyridin-2-yl]methanol] gave an IC50 of 20.5 nM.

Compound `COc1cc2c(cc1Nc1ncc3ccc(Nc4cccc(CO)c4)cc3n1)CN(C)CC2` [Compound 3-31, [3-({2-[(6-methoxy-2-methyl-1,2,3,4-tetrahydroisoquinolin-7-yl)amino]quinazolin-7-yl}-amino)phenyl]methanol] showed an IC50 of 29.4 nM. Turning to `COc1cc2c(cc1Nc1ncc3ccc(Nc4ccc5c(c4)N(C(C)=O)CC5)cc3n1)CN(C)CC2` [Compound 3-32, 1-[6-({2-[(6-methoxy-2-methyl-1,2,3,4-tetrahydroisoquinolin-7-yl)amino]quinazolin-7-yl}-amino)-2,3-dihydro-1H-indol-1-yl]ethan-1-one], half-maximal inhibition (IC50) was put at 57.1 nM.
